In patent publication US9708305B2, “Substituted 1,2,3,4-tetrahydroisoquinoline derivatives for the treatment of hormone-dependent diseases” (UNIVERSITÉ LAVAL, priority 2013, dated 2017):

Legend:
Format in all cases: cell-based
[1] = tested on: alkaline phosphatase activity in Saos-2 cells; experiment: Alkaline phosphatase assay (Saos-2 cells), phenol library; details: 1 nM; control (no treatment) fixed at 100%
Experimental: We also investigated the effect of selected phenol derivatives on alkaline phosphatase activity in Saos-2 cells (FIG. 13B).
Saos-2 cells were used similarly as reported in the cell proliferation assay. The cells were seeded at a density of 2 000 cells/well and treated for 3 days with each compound to be tested. The alkaline phosphatase (ALP) activity was measured using the Sensolyte® pNPP Alkaline Phosphatase Assay Kit *Colorimetric* (AnaSpec, Freemont, Calif.) following the manufacturer's protocol. Briefly, after three days of treatment, the cells were washed twice with washing buffer (provided with the kit) and lysed with 0.2% Triton X-100. The cell lysates were centrifuged and the supernatants were used to determine ALP activity. The supernatants were deposed in a 96-well plate and incubated for 30 minutes with a p-nitrophenyl phosphate solution (provided with the kit). The absorbance at 405 nm was measured with a Thermo max microplate reader (Molecular Devices, Sunnyvale, Calif.). The control (culture media+DMSO) is set to 100% of alkaline phosphatase activity.

MCF-7 (ER+) cells = experiment: Proliferative (estrogenic) activity on MCF-7 (ER+) cells; details: 0.1 nM; 7 days; control 100%
Experimental: The next step was to determine the presence or absence of estrogenic activity. To do so, cell proliferative assays were carried out on MCF-7 cells. […] Phenols of the corresponding sulfamate library 3-EO and 4-EO are referred to as library 3′-EO and library 4′-EO, respectively.
This cell assay was carried out according to a procedure previously described to determine the estrogenic activity of enzyme inhibitors on the growth of estrogen-sensitive MCF-7 cells.^77 All chemicals tested were first dissolved in DMSO and subsequent dilutions were done in the proper cell culture media. The final concentration of DMSO in the culture medium was 0.1% or less. 3-(4,5-dimethylthiazol-2-yl)-5-(3-carboxymethoxyphenyl)-2-(4-sulfophenyl)-2-H-tetrazolium (MTS) was used as an indirect colorimetric measurement of cell proliferation according to the manufacturer's instructions (Promega, Madison, Wis.). At the end of the treatments, 20 μL of MTS solution was added to each well (100 μL) and the MCF-7 cells were incubated 4 h at 37° C. The absorbance at 490 nm was then measured with a Thermo max microplate reader (Molecular Devices, Sunnyvale, Calif.). The control (culture media+DMSO) is set to 100% of cell proliferation.

T-47D cells [2] = experiment: T-47D cell proliferation in presence of E2 (antiestrogenicity); details: Homo sapiens, T47D; read-out: Breast cancer cells T-47D (ER+) Antagonist activity (%)
Experimental: (§1) CellTitter 96® Aqueous One Solution Cell Proliferation Assay was used as an indirect colorimetric measurement of cell proliferation according to the manufacturer's instructions. Briefly, after the treatments, 20 μL of MTS solution was added to each well (100 μL) of the plates and incubated at 37° C. for 2 h (Saos-2) or 4 h (T-47D). The absorbance at 490 nm was then measured with a Thermo max microplate reader (Molecular Devices, Sunnyvale, Calif.). The control (culture media+DMSO) is set to 100% of cell proliferation.
The cells were plated in 96-well plates at a density of 3 000 cells/well and allowed to attach for 48 h. After this pre-incubation, the inhibitors and the reference compounds diluted in fresh culture media were added to the wells and replaced every 2 days for 7 days of treatment.

[3] = tested on: alkaline phosphatase (ALP) activity in Saos-2 cells; experiment: Alkaline phosphatase (ALP) activity in Saos-2 cells
Experimental: ALP is an enzyme that releases inorganic phosphate from different intracellular substrates such as pyrophosphate and pyridoxal 5′-phosphate.^63 The inorganic phosphate is used in the formation of hydroxyapatite crystals which are then inserted in the extracellular protein scaffold to form the solid part of bone tissue.
Saos-2 cells were treated similarly as reported in the cell proliferation assay. The cells were seeded at a density of 2 000 cells/well and were treated with the inhibitors and the reference compounds for 3 days. The alkaline phosphatase (ALP) activity was measured using Sensolyte® pNPP Alkaline Phosphatase Assay Kit *Colorimetric* (AnaSpec, Fremont, Calif.) following the manufacturer's protocol. Briefly, after the 3 days of treatment, the cells were washed twice with washing buffer (provided with the kit) and lysed with 0.2% Triton X-100. The cell lysates were centrifuged and the supernatants were used to determine the ALP activity. The supernatants were deposed in a 96-well plate and incubated 30 min with a p-nitrophenyl phosphate solution (provided with the kit). The absorbance at 405 nm was measured with a Thermo max microplate reader (Molecular Devices, Sunnyvale, Calif.). The control (culture media+DMSO) is set to 100% of alkaline phosphatase activity.

T-47D cells [4] = experiment: T-47D cell proliferation (estrogenicity / cytotoxicity), MTS
[5] = tested on: osteoblast-like Saos-2 cells; experiment: Saos-2 cell proliferation, MTS; details: in percentage of control (100%; 0.1 nM of estradiol)
Excerpt: First, we wanted to evaluate their effect on cell proliferation. […] This is outlined in FIG. 8A. […] One of the main roles of osteoblasts in bone tissue is to construct a calcified extracellular matrix.^15 As such, bone formation is not principally due to osteoblasts proliferation but rather osteoblasts maturation into mature osteocytes. […] This is outlined in FIG. 8B.
as §1
Saos-2 cells were suspended in phenol-red free McCoy's 5A medium supplemented with 10% charcoal-stripped FBS, penicillin (100 IU/mL) and streptomycin (100 μg/mL). The cells were seeded in 96-well plates at a density of 3 000 cells/well and allowed to attach. After 24 h, the inhibitors and the reference compounds diluted in fresh culture media were added to the wells and replaced every 2 days for 7 days of treatment.

Question: How did the “ALP activity in Saos-2 cells” value [1] turn out when `C[C@]12CC[C@@H]3c4ccc(O)cc4CC[C@H]3[C@@H]1CC[C@@H]2O` [E2, 17β-estradiol, reference compound] was run?
Answer: 148%

Question: And the “proliferation of MCF-7 (ER+) cells” value (MCF-7 (ER+) cells)?
Answer: 176%

Question: What about the inhibition at 1 µM (T-47D cells [2]) of the same compound?
Answer: 0%

Question: What about the “Bone cells Saos-2 (ER+) SERM effect Alkaline phosphatase activity (%)” value ([3]; 0.1 nM) of the same compound?
Answer: 100%

Question: What about the “stimulation of ALP activity in presence of ICI-164,384 or MPP + PHTPP” value ([3]; 0.1 nM compound, antagonists 1 μM, 3 days) of the same compound?
Answer: completely blocked the stimulation

Question: And the T-47D cell proliferation (T-47D cells [4]; 0.1 nM, control 100%, 7 days)?
Answer: approximately 160%

Question: And the “Breast cancer cells T-47D (ER+) Agonist activity (%)” value (T-47D cells [4]; 1 μM, in % of control (100%; 0.1 nM of estradiol))?
Answer: 100%

Question: What about the “Bone cells Saos-2 (ER+) SERM effect Proliferative activity (%)” value ([5]; 0.1 μM) of the same compound?
Answer: 100%

Question: What about the “Bone cells Saos-2 (ER+) SERM effect Proliferative activity (%)” value ([5]; 1 μM) of the same compound?
Answer: 100%
